Reference: patent US8524744B2, “Arylamine ketones, their preparation methods, the pharmaceutical composition containing them and their use” (Institute of Mataria Medica, Chinese Academy of Medical …, priority 2004, dated 2013)
Where a name gives a salt, the structure may show the parent alone. Values belong to the compound of their own block, whether it stands above or below them.

What was measured:
[1] = system: production of NO in macrophages from mouse peritoneal cavity; assay: production of NO in macrophages from mouse peritoneal cavity (LPS and PAF); format: cell-based; conditions: Macrophage, 24 h, read-out: IC50, inhibition of the production of NO
Experimental: 4% of sodium mercaptoethanol was injected into C57BL/6 mouse peritoneal cavity to induce macrophages. The cells in peritoneal cavity were collected after injection for 3-4 days. 500 μl of cells were inoculated in the well of 24 wells plate which was placed in the CO2 incubator at 37° C. for 2.5 hr to make the cells adherent. The cells were rinsed by 1640 culture media. 495 μl of 1640 media containing irritant and 5 μl the compound or solvent were added into each well. The plate was incubated for 24 hr. The supernatant was taken out and mixed with the same volume of Griess agent. The reaction fluid was kept at room temperature for 10 min and the optical density was measured at 550 nm. The numbers read was transferred into the content of NO.

[2] = system: production of TNF-α by macrophages from mouse peritoneal cavity; assay: production of TNF-α by macrophages from mouse peritoneal cavity (LPS, L929 bioassay); format: cell-based; conditions: Macrophage, 24 h, read-out: IC50, inhibition of the production of TNF-α
Experimental: The macrophages from mouse peritoneal cavity were prepared as described before. 500 μl of cells were inoculated in 48-well plate which was incubated with 5% CO2 at 37° C. for 2.5 hr. The compounds and LPS (final concentration: 10 μg·ml^−1) were added into each well of the plate. After incubating for 24 hr the supernatant was collected. The content of TNF-α was determined by following method. 100 μl of L929 cells (2×10^5cells·ml^−1) with 100 μl of RPMI-1640 or supernatant collected above were inoculated into 96-well plate which incubated under 5% CO2 at 37° C. for 20 hr. The supernatant was discarded. 200 μl of 0.5% crystal violet was added into each well. 10 min later crystal violet outside of the cells was rinsed using normal saline. The cells were dried under room temperature. 100 μl of 10% SDS was added into each well. After the cells were lysed completely the optical density was measured at 570 nm. The well of 1640 media was as the control, The content of TNF-a was evaluated by the percentage of L929 cells survival.

[3] = molecular target: T1, PAF receptors of macrophages from mouse peritoneal cavity (Mus musculus, UniProt Q62035); assay: competitive binding of [3H]-PAF to its receptors of macrophages from mouse peritoneal cavity; conditions: 4° C, 150 min, read-out: Ki, competition with [3H]-PAF binding
T1 construct: The cells in peritoneal cavity were collected after injection for 3-4 days; endogenous in cells; host or cells: adherent peritoneal macrophages of C57BL/6 mice (primary)
T1 sequence (Q62035 whole entry): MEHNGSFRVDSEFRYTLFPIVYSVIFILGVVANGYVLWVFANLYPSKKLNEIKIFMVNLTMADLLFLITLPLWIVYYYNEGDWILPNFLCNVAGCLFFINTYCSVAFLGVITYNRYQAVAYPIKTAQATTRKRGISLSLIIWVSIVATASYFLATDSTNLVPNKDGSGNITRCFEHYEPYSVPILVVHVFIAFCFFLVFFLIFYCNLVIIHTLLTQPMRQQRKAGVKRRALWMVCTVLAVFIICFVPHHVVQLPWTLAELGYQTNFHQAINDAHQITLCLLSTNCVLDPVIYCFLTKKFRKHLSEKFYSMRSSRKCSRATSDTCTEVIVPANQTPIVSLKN
Experimental: 4% of sodium mercaptoethanol was injected into C57BL/6 mouse peritoneal cavity to induce macrophages. The cells in peritoneal cavity were collected after injection for 3-4 days. 500 μl of suspension (5×10^5cells·ml^−1) was inoculated into 24-well culture plate which was placed into the incubator with 5% CO2 at 37° C for 2.5 hr. The non-adherent cells and serum in media were discarded. 490 μl of Tyrode-Hepes solution and 5 μl of [^3H]-PAF (final concentration: 2.8 nmol·L^−1) were added into each well. 5 μl of unlabeled PAF (5 μmol·L^1) was added into the well for the nonspecific binding. The series concentrations of compound were added into the well for the competitive binding and the corresponding volume of solvent was added into the wells for the total binding or the nonspecific binding. The reaction fluid was incubated at 4° C for 150 min and rinsed to wipe off the free labeled ligand. 300 μl of NaOH (0.3 mol·L^−1) was added to lyse the cells. The lysate fluid was transferred into a vial in which 7 ml of scintillation solution was added. The radioactivity strength was measured by scintillation counter.

[4] = system: mouse paw swelling induced by carrageenan; assay: mouse paw swelling induced by carrageenan; format: in vivo; conditions: orally, 50 mg·kg^−1, Kunming mice
Experimental: Kunming mice (male, 18-22 g) were randomly divided into two groups (treatment and control) with 10 animals for each group. The animals were orally administrated with compounds or solvent, respectively. 1 hr later, 50 μl of 1% carrageenan was intracutaneously injected into the sole of right posterior foot. After 4 hr the animals were sacrificed by displacing cervical vertebra. The two paws were cut off at ankle joint and weighed. The swelling was evaluated by the difference of the weights of two paws.

[5] = system: macrophages from mouse peritoneal cavity; assay: chemotaxis of macrophages from mouse peritoneal cavity induced by PAF; format: cell-based; conditions: Macrophage, 2 hr, read-out: IC50, inhibition of chemotaxis
Experimental: 4% of sodium mercaptoethanol was injected into C57BL/6 mouse peritoneal cavity to induce macrophages. The cells in peritoneal cavity were collected after injection for 3-4 days. 27 μl of irritant was added into the well at low part of the chemotaxis plate. The filter membrane was covered on the wells and the top part of the plate was assembled on the filter. 55 μl of cells suspension with various concentrations of the compounds or solvent was added into the well at top part of the plate. The plate was placed into incubater with 5% CO2 at 37° C. for 2 hr. The filter was taken out, stained by hematoxylin and dehydrated. The cells migrated into the other side of the filter was counted by microscope.

[6] = system: cutaneous vascular permeability in mice induced by PAF; assay: increase of cutaneous vascular permeability in mice induced by PAF; format: in vivo, mouse; conditions: orally, 50 mg·kg^−1, Kunming mice
Experimental: Kunming mice (male, 18-22 g) were randomly divided into two groups (treatment and control) with 10 animals for each group. The animals were orally administrated with the compounds or solvent, respectively. 1 hr later, 0.25 ml of 1% evans blue dye was injected into the tail vein. After 10 min, 0.1 ml of PAF (1×10^−8 mol·L^−1) was intracutaneously injected into the dorsal skin shaved. 1 hr later, the animals were sacrificed by cervical vertebra displacement. The skin with blue spot was cut off. The evans blue dye was extracted by 0.8 ml of mixed solution of acetone and normal saline (7:3). The supernatant was transferred into the 96-well plate. The optical density was measured at 620 nm.

[7] = system: polymorphonuclear leucocytes from rat pleural cavity; assay: release of β-glucuronidase by polymorphonuclear leucocytes from rat pleural cavity in vitro (PAF as irritant); format: cell-based; conditions: for Inhibition (%) of β-glucuronidase release: Dose 1 × 10^−5 mol · L^−1; for IC50: Leucocyte, rat polymorphonuclear leucocytes
Experimental: 1% carrageenan was injected into the right pleural cavity of Wistar rat to induce polymorphonuclear leucocytes. The cells was suspended in Dulbecoo's buffer at the concentration of 2.5×10^6 cells·ml^1. The fluid containing the compound or solvent and 250 μl of cells suspension were added in test tube and incubated in 37° C. waterbath for 15 min. Then 2.5 μl of cytochalasin B (1×10^−3 mol·L^−1) was added and the reaction was continued for 5 min. Then 2.5 μl of PAF (1×10^−4 mol·L^−1) was added and for another 5 min. The test tubes were put into ice bath to stop the reaction. The supernatant was isolated and used as the β-glucuronidase release fluid. 25 μl of the enzyme fluid, 25 μl of phenolphthalein-glucuronic acid (2.5 mmol·L^−1) and 100 μl of acetic acid buffer (0.1 mol·L^−1) were added into each well of 96-well plate which was placed into incubater and kept at 37° C.3 for 18 hr. 150 μl of NaOH (0.3 mol·L^−1) was added in each well to cease the reaction and the optical density was read at 550 nm.

[8] = system: patients with rheumatoid arthritis; conditions: after administration for 4 weeks; cited from earlier work
[9] = system: NF-κB, TNF-α mRNA; conditions: infected mice; cited from earlier work
[10] = system: mouse with arthritis induced by type III collagen; conditions: cited from earlier work
[11] = system: new vessels in mouse angiogenesis model; conditions: mouse angiogenesis model induced by synovial fluid of patient with rheumatoid arthritis; cited from earlier work
[12] = system: TNF-α level in synovial fluid of rat ankle joint; conditions: induced by immune complex; cited from earlier work
[13] = system: mouse ear edema induced by croton oil; assay: mouse ear edema induced by croton oil; format: in vivo; conditions: orally, 50 mg·kg^−1, Kunming mice
Experimental: Kuming mice (male, 18-22 g) were randomly divided into two groups (treatment and control) with 10 animals for each group. The animals were orally administrated with compounds or solvent, respectively. 1 hr later, 50 μl of 2% croton oil was smeared on the two sides of mouse left ear. After 4 hr the mice were sacrificed by cervical vertebra displacement. The two ears were cut off and the central sections were excised using a punch with a diameter of 8 mm and weighed. Edema was quantified as the weight difference between the two sections.

[14] = system: rat ear edema; conditions: induced by PAF or PMA; cited from earlier work
[15] = system: rat paw swelling; conditions: induced by PAF, carrageenan, histamine, 5-serotonin; cited from earlier work
[16] = system: rat neutrophils; assay: chemotaxis of rat neutrophils in vitro; format: cell-based; conditions: Neutrophil, 4 hr, read-out: IC50, inhibition of chemotaxis
Experimental: The blood was collected from rat common carotid artery and anticoagulated. The neutrophils was isolated by 5% glucose solution and lymphocyte separating medium. 27 μl of irritant was added into the well at low part of the chemotaxis plate. The filter membrane was covered on the wells and the top part of the plate was assembled on the filter. 50 μl of cells suspension with various concentrations of compound or solvent was added into the well at top part of the plate. The plate was incubated at 37° C. for 4 hr. The filter was taken out, stained by hematoxylin and dehydrated. The cells migrated into the other side of the filter was counted by microscope.

[17] = system: mouse ear edema; conditions: induced by arachidonic acid; cited from earlier work

Structure (SMILES): COc1ccc(C=CC(=O)CCN2CC(C)OC(C)C2)cc1O (stereo not shown) [Compound 36, 5-(2,6-Dimethylmorpholinyl)-1-(3-hydroxy-4-methoxyphenyl)-1-penten-3-one hydrochloride]
- IC50 [1]: 3230 nM
- IC50 [2]: 45.8 nM
- Ki [3]: 48100 nM
- Inhibition (%) of mouse paw swelling [4]: 28.00%
- IC50 [5]: 44.8 nM
- Inhibition (%) of increase of cutaneous vascular permeability [6]: 33.50%
- Inhibition (%) of β-glucuronidase release ([7]; Irritant 2 × 10^−7 mol · L^−1): 129.72%
- IC50 [7]: 0.555 nM

Structure (SMILES): COc1ccc(NC(=S)N2CCc3c(sc4c3C(c3ccccc3Cl)=NCc3nnc(C)n3-4)C2)cc1 [BN50730]
- symptom of patients with rheumatoid arthritis [8]: significantly improves
- early activity of NF-κB [9]: reduce
- expression of TNF-α mRNA [9]: reduce
- consumption of proteoglycan in cartilage [10]: decrease
- joint swelling [10]: significantly inhibit
- precipitation of fibronectin in cartilage [10]: decrease

Structure (SMILES): Cc1nnc2n1-c1sc3c(c1C(c1ccccc1Cl)=NC2)CC(C(=O)N1CCOCC1)C3 (stereo not shown) [WEB2170]
- increase of new vessels [11]: inhibit
- increase of TNF-α level in synovial fluid [12]: inhibit

Structure (SMILES): CCOc1cc(C=CC(=O)CCN2CC(C)OC(C)C2)ccc1O (stereo not shown) [Compound 37, 5-(2,6-Dimethylmorpholinyl)-1-(3-ethoxy-4-hydroxyphenyl)-1-penten-3-one hydrochloride]
- IC50 [1]: 3690 nM
- IC50 [2]: 2 nM
- Ki [3]: 68300 nM
- Inhibition (%) of mouse paw swelling [4]: 21.60%
- Inhibition (%) of mouse ear edema [13]: 33.20%
- IC50 [5]: 83.2 nM
- Inhibition (%) of increase of cutaneous vascular permeability [6]: 38.70%
- Inhibition (%) of β-glucuronidase release ([7]; Irritant 2 × 10^−7 mol · L^−1): 79.24%
- IC50 [7]: 1.23 nM

Structure (SMILES): CN(C)C(=O)n1cc(C(=O)c2ccn3c2CS[C@@H]3c2cccnc2)c2ccc(-c3ccc(F)cc3)cc21 [Compound A-85783]
- rat ear edema [14]: significantly inhibit

Structure (SMILES): CCCCCCCCCCCCCCCCCCNC(=O)OCC(COC(=O)N(Cc1cccc[n+]1CC)C(C)=O)OC (stereo not shown) [CV-6209]
- rat paw swelling [15]: inhibit

- IC50 [16]: 4.05 nM
Structure (SMILES): COc1ccc(C=CC(=O)CCN2CCC(Cc3ccccc3)CC2)cc1 [Compound 22a, 5-[(4-Benzyl)piperidyl]-1-(4-methoxyphenyl)-1-penten-3-one hydrochloride]
- Inhibition (%) of mouse paw swelling [4]: 23.33%
- Inhibition (%) of mouse ear edema [13]: 31.22%
- Inhibition (%) of increase of cutaneous vascular permeability [6]: 51.14%
- Inhibition (%) of β-glucuronidase release ([7]; Irritant 1 × 10^−6 mol · L^−1): 73.17%
- IC50 [7]: 562 nM

Structure (SMILES): COc1cc([C@H]2CC[C@H](c3cc(OC)c(OC)c(OC)c3)O2)cc(CNC(=O)N(C)O)c1OCCSc1ccc(Cl)cc1 [LDP-392]
- mouse ear edema [17]: significantly inhibit
